Results on 11 compounds are retold here after ChEMBL document CHEMBL1201862, “PubChem BioAssay data set” (2004).

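Dose response: 5 concentrations. Exposure: 48 h. Format: 96-well plates. Endpoint: linear interpolation; highest concentration if not reached. GI50 marks 50% less growth.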 Active and inactive are the calls of the source. No stated cut-off is given here; in the data, active = GI50 up to about 1.1 µM and inactive = higher.

What all share (assay): NCI-60 cell line screen, 48 h
The subject of test [1] is HCT-116.
Test [2] has as its system Malme-3M.
The test system of test [3] is UACC-257.
The test system of test [4] is T47D.
Test [5] deals with OVCAR-8.
The test system of test [6] is NCI-H460.
Test [7] deals with NCI-H226.
Test [8] has as its system NCI/ADR-RES.
Test [9] relates to 786-0.
The test system of test [10] is ACHN.
Test [11] has as its system CAKI-1.
Test [12] relates to MCF7.
Test [13] relates to SK-MEL-5.
Test [14] deals with OVCAR-5.
Test [15] deals with OVCAR-3.
Test [16] relates to NCI-H522.
The subject of test [17] is Hs-578T.
Test [18] concerns SR.
Test [19] deals with MOLT-4.
The subject of test [20] is UACC-62.

Consider `CC(C)(C)O/C=C1/C(=O)OC2C[C@@H](O[Si](C)(C)C(C)(C)C)CC12` (some centres undefined), for which the GI50 in test [1] was 37.1 µM (inactive); in test [2] it was 98.9 µM (inactive); in test [3], 41.5 µM (inactive); in test [4], 23.3 µM (inactive); in [5], 48.1 µM (inactive); in test [6], 79.8 µM (inactive). In addition, the GI50 was 92.7 µM (inactive) in test [7]; 55.1 µM (inactive) in [8]; > 100 µM (inactive) in test [9]; 72.6 µM (inactive) in test [10]; > 100 µM (inactive) in test [11]; 36.1 µM (inactive) in [12]. Moreover, the GI50 in test [13] is 60.3 µM (inactive); in [14], > 100 µM (inactive); in [15], 48.4 µM (inactive); in test [16], 27.6 µM (inactive).
For `Cc1nc2ccccc2c(=O)n1NC(=O)c1ccccc1O`, the GI50 in [1], in test [3], in test [17], in test [5], in test [6] and in test [7] was > 100 µM (inactive) each time. In addition, the GI50 in test [9], in test [18], in test [10], in test [19], in [12] and in test [13] was > 100 µM (inactive) each time. Further, the GI50 in [20], in [14], in test [15] and in test [16] was > 100 µM (inactive) each time.
Turning to `Cc1ccc(S(=O)(=O)NC(=O)NCCc2ccc(O)c(O)c2)cc1`, the GI50 in test [1] was > 100 µM (inactive); in test [2] it was > 100 µM (inactive); in [17] it was > 100 µM (inactive); in [5] it was 97.3 µM (inactive); in test [6] it was > 100 µM (inactive); in test [7], > 100 µM (inactive). Besides, the GI50 is > 100 µM (inactive) in test [8]; > 100 µM (inactive) in [9]; > 100 µM (inactive) in [18]; > 100 µM (inactive) in test [10]; 58.2 µM (inactive) in test [19]; > 100 µM (inactive) in test [11]. Further, the GI50 in test [12] is 61.8 µM (inactive); in [13], 37.2 µM (inactive); in [20], > 100 µM (inactive); in [14], > 100 µM (inactive); in test [15], > 100 µM (inactive); in [16] it was > 100 µM (inactive).
As to `CC1OC(O)C(O)C(O)C1O` (centres undefined), the GI50 in test [1], in test [2], in [3], in test [4], in test [17] and in [5] was > 100 µM (inactive) throughout. Further, the GI50 in [6], in test [7], in test [8], in test [9], in test [10] and in [11] was > 100 µM (inactive) throughout. Also, the GI50 in [12], in test [13], in test [20], in test [14], in test [15] and in test [16] was > 100 µM (inactive) in each case.
In the case of `CCOP(=O)(OCC)/C(C#N)=C/c1cccn1CC(C)C`, the GI50 in test [1] was > 100 µM (inactive); in test [2], > 100 µM (inactive); in test [3], > 100 µM (inactive); in [4] it was 36.6 µM (inactive); in test [5], > 100 µM (inactive); in test [6] it was > 100 µM (inactive). For the same compound, the GI50 in [7] was 35.7 µM (inactive); in test [8] it was > 100 µM (inactive); in [9], > 100 µM (inactive); in test [18] it was > 100 µM (inactive); in test [10] it was > 100 µM (inactive); in [19], 52.5 µM (inactive). Further, the GI50 is > 100 µM (inactive) in [11]; > 100 µM (inactive) in test [12]; 40.9 µM (inactive) in [13]; > 100 µM (inactive) in test [20]; > 100 µM (inactive) in [14]; > 100 µM (inactive) in test [15]. The GI50 in [16] was 81.8 µM (inactive).
In the case of `O=P(O)(O)c1ccc2c(c1)OCCOCCOCCOCCO2`, the GI50 in test [1], in [2], in [3], in test [4], in [17] and in test [5] was > 100 µM (inactive) throughout. Also, the GI50 in test [6], in test [7], in [9], in test [18], in test [10] and in [19] was > 100 µM (inactive) in each case. The GI50 in test [12], in test [13], in test [20] and in test [16] was > 100 µM (inactive) throughout.
`O=CC12c3ccccc3C(c3ccccc31)C1C(=O)NC(=O)C12` (centres undefined): the GI50 in [1] was 45.9 µM (inactive); in [2] it was 90.2 µM (inactive); in test [3] it was > 100 µM (inactive); in test [4] it was 75.3 µM (inactive); in [5], > 100 µM (inactive); in [6], > 100 µM (inactive). Moreover, the GI50 in test [7] was > 100 µM (inactive); in [8], > 100 µM (inactive); in test [9], > 100 µM (inactive); in test [18] it was > 100 µM (inactive); in test [10], > 100 µM (inactive); in test [19], 97.3 µM (inactive). In addition, the GI50 in test [11] was 54.2 µM (inactive); in test [12], 0.953 µM (active); in test [13] it was 37.2 µM (inactive); in test [20], > 100 µM (inactive); in test [14], > 100 µM (inactive); in [15] it was > 100 µM (inactive). Further, the GI50 in [16] is 53 µM (inactive).
Consider `CCC(CCCN)Nc1cc(OC)cc2c(C)ccnc12` (centres undefined), for which the GI50 is 15.9 µM (inactive) in [1]; 19.6 µM (inactive) in test [2]; 17.9 µM (inactive) in [3]; 13 µM (inactive) in test [17]; 21.1 µM (inactive) in test [5]; 17.7 µM (inactive) in [6]. Also, the GI50 in [7] is 13.3 µM (inactive); in [8] it was 25.1 µM (inactive); in test [9], 15.4 µM (inactive); in test [18], 15.3 µM (inactive); in test [10] it was 18.3 µM (inactive); in test [19], 15.8 µM (inactive). Besides, the GI50 in test [11] was 15.5 µM (inactive); in test [12], 15 µM (inactive); in test [13] it was 17.8 µM (inactive); in test [20], > 10 µM (inactive); in [14] it was 17.7 µM (inactive); in test [15], 15.4 µM (inactive).
With `Clc1ccc(CSc2ncnc3c2ncn3C2CCCCO2)cc1` (centres undefined), the GI50 was 20.8 µM (inactive) in test [1]; 17.9 µM (inactive) in test [2]; 11.2 µM (inactive) in test [3]; 17.4 µM (inactive) in test [4]; 26.5 µM (inactive) in test [17]; 22.9 µM (inactive) in test [5]. For the same compound, the GI50 in test [6] was 16.9 µM (inactive); in test [7], 28.4 µM (inactive); in [8], 17.9 µM (inactive); in test [9], 22.5 µM (inactive); in test [10], 16.1 µM (inactive); in test [11] it was 26.3 µM (inactive). For the same compound, the GI50 was 26.6 µM (inactive) in [12]; 10.9 µM (inactive) in test [13]; 15.7 µM (inactive) in test [20]; 37.4 µM (inactive) in test [14]; 15.7 µM (inactive) in test [15]; 13.8 µM (inactive) in [16].
`CC(=O)c1cn(-c2ccc(Cl)cc2)c(=O)c2c(N)n[nH]c12`: the GI50 in test [1], in [3], in test [4], in test [17], in test [5] and in test [6] was > 100 µM (inactive) each time. Also, the GI50 in [7] was > 100 µM (inactive); in test [8] it was > 100 µM (inactive); in test [9], > 100 µM (inactive); in test [18], > 100 µM (inactive); in test [10], 25.6 µM (inactive); in test [19] it was > 100 µM (inactive). The GI50 was > 100 µM (inactive) in test [11], > 100 µM (inactive) in test [13] and 41.7 µM (inactive) in test [20].
Consider `CO[C@@H](C(=O)OC1C=CC2(CC1)C(=O)N(C)c1ccccc12)c1ccccc1` (some centres undefined), for which the GI50 was 52.5 µM (inactive) in [1]; 65.3 µM (inactive) in test [3]; 44.2 µM (inactive) in [4]; > 100 µM (inactive) in test [5]; > 100 µM (inactive) in test [6]; 45.1 µM (inactive) in [8]. For the same compound, the GI50 is > 100 µM (inactive) in test [9]; 42.1 µM (inactive) in [18]; > 100 µM (inactive) in [10]; 40.4 µM (inactive) in test [19]; > 100 µM (inactive) in [11]; 50.8 µM (inactive) in [12]. Further, the GI50 in test [13] is 34.3 µM (inactive); in test [20] it was > 100 µM (inactive); in test [14] it was > 100 µM (inactive); in test [15], > 100 µM (inactive).
